Values of other authors as cited in US12637441B2, “Prodrugs of the tyrosine kinase inhibitor for treating cancer” (RISEN (SUZHOU) PHARMA TECH CO., LTD., priority 2019, dated 2026).

Q: With CNC(=O)c1ccccc1Sc1ccc2c(/C=C/c3ccccn3)n[nH]c2c1 [axitinib, N-methyl-2-((3-((1E)-2-(2-pyridinyl)ethenyl)-1H-indazol-6-yl)thio)benzamide] as the molecule, how does the “patients in whom the most common side effects occur” value read?
A: Its value is “more than 20%”.
